Results as given in patent US12577255B2, “MDM2-based modulators of proteolysis and associated methods of use” (Arvinas Operations, Inc., priority 2015, dated 2026).

The compounds below were run on p53 (assay: Western blot of HCT116 cells, p53 level). Settings: Western blot (FIG. 2, FIG. 3).
Assay type: cell-based, human
COc1cc(C(=O)NCCOCCOCCOCC(=O)N[C@H](C(=O)N2C[C@H](O)C[C@H]2C(=O)NCc2ccc(-c3scnc3C)cc2)C(C)(C)C)ccc1NC(=O)[C@@H]1N[C@@H](CC(C)(C)C)[C@](C#N)(c2ccc(Cl)cc2F)[C@H]1c1cccc(Cl)c1F [Compound A1910, (2R,3S,4R,5S)-3-(3-chloro-2-fluorophenyl)-4-(4-chloro-2-fluorophenyl)-4-cyano-5-(2,2-dimethylpropyl)-N-{4-[(2-{2-[2-({[(2S)-1-[(2S,4R)-4-hydroxy-2-({[4-(4-methyl-1,3-thiazol-5-yl)phenyl]methyl}-carbamoyl)pyrrolidin-1-yl]-3,3-dimethyl-1-oxobutan-2-yl]carbamoyl}methoxy)-ethoxy]ethoxy}ethyl)carbamoyl]-2-methoxyphenyl}pyrrolidine-2-carboxamide] was tested, and the p53 level increase was “dose dependent p53 level increase”.
COc1cc(C(=O)NCCOCCOCC(=O)N[C@H](C(=O)N2C[C@H](O)C[C@H]2C(=O)NCc2ccc(-c3scnc3C)cc2)C(C)(C)C)ccc1NC(=O)[C@@H]1N[C@@H](CC(C)(C)C)[C@](C#N)(c2ccc(Cl)cc2F)[C@H]1c1cccc(Cl)c1F [Compound A1907] was tested, and the p53 level increase was “dose dependent p53 level increase”.

The compounds below were run against T1, bromodomain-containing protein 4 (BRD4) (Homo sapiens, UniProt O60885) (assay: BRD4 Western blot (degradation)). Settings: at 1 μM; VCaP cells, 16 h.
T1 construct: VCaP cells were chased from ATCC and cultured in Dulbecco's Modified Eagle's Medium; host or cells: VCaP
Assay type: cell-based
Procedure: The following biological assays were performed to evaluate the protein degradation in various cell types using representative compounds disclosed. The degradation of the following proteins were evaluated: bromodomain-containing protein 4 (BRD4), androgen receptor (AR), c-Myc, c-Jun N-terminal kinases (JNK), and enhancer of zeste homolog 2 (EZH2).
VCaP cells were chased from ATCC and cultured in Dulbecco's Modified Eagle's Medium (ATCC), supplemented with 10% FBS (ATCC) and Penicillin/Streptomycin (Life Technologies). DMSO control and compound treatments (0.03 μM to 1 μM) were performed in 12-well plates for 16 h. cells were harvested, and lysed in RIPA buffer (50 mM Tris pH8, 150 mM NaCl, 1% Tx-100, 0.1% SDS, 0.5% sodium deoxycholate) supplemented with protease and phosphatase inhibitors. Lysates were clarified at 16,000 g for 10 minutes, and protein concentration was determined. Equal amount of protein (20 μg) was subjected to SDS-PAGE analysis and followed by immunoblotting according to standard protocols. The antibodies used were BRD4 (Cell signaling #13440), and Actin (Sigma #5441). Detection reagents were Clarity Western ELC substrate (Bio-rad #170-5060).
With Cc1sc2c(c1C)C(c1ccc(Cl)cc1)=N[C@@H](CC(=O)NCCOCCOCCOCCOCCNC(=O)C1N[C@@H](CC(C)(C)C)[C@](C#N)(c3ccc(Cl)cc3F)[C@H]1c1cccc(Cl)c1F)c1nnc(C)n1-2 (stereo partly drawn) [Compound A1307, N-(14-{[3-(3-chloro-2-fluorophenyl)-4-(4-chloro-2-fluorophenyl)-4-cyano-5-(2,2-dimethylpropyl)pyrrolidin-2-yl]formamido}-3,6,9,12-tetraoxatetradecan-1-yl)-2-[(9S)-7-(4-chlorophenyl)-4,5,13-trimethyl-3-thia-1,8,11,12-tetraazatricyclo-[8.3.0.0^2,^6]trideca-2(6),4,7,10,12-pentaen-9-yl]acetamide] the “Degradation activity BRD4” value was “C (larger than 50% degradation at 1 μM)”.
For COc1cc(C(=O)NCCOCCOCCOCCNC(=O)C[C@@H]2N=C(c3ccc(Cl)cc3)c3c(sc(C)c3C)-n3c(C)nnc32)ccc1NC(=O)[C@@H]1N[C@@H](CC(C)(C)C)[C@](C#N)(c2ccc(Cl)cc2F)[C@H]1c1cccc(Cl)c1F [Compound A1874, (2R,3S,4R,5S)-3-(3-chloro-2-fluorophenyl)-4-(4-chloro-2-fluorophenyl)-N-{4-[(2-{2-[2-(2-{2-[(9S)-7-(4-chlorophenyl)-4,5,13-trimethyl-3-thia-1,8,11,12-tetraazatricyclo[8.3.0.0^2,^6]trideca-2(6),4,7,10,12-pentaen-9-yl]acetamido}ethoxy)ethoxy]ethoxy}ethyl)carbamoyl]-2-methoxyphenyl}-4-cyano-5-(2,2-dimethylpropyl)pyrrolidine-2-carboxamide], the “Degradation activity BRD4” value was “B (25 to 50% degradation at 1 μM)”.
With COc1cc(C(=O)NCCOCCOCCOCCNC(=O)C[C@@H]2N=C(c3ccc(Cl)cc3)c3c(sc(C)c3C)-n3c(C)nnc32)ccc1NC(=O)C1N[C@@H](CC(C)(C)C)[C@](C#N)(c2ccc(Cl)cc2F)[C@H]1c1cccc(Cl)c1F (stereo partly drawn) [Compound A1829, 3-(3-chloro-2-fluorophenyl)-4-(4-chloro-2-fluorophenyl)-N-{4-[(2-{2-[2-(2-{2-[(9S)-7-(4-chlorophenyl)-4,5,13-trimethyl-3-thia-1,8,11,12-tetraazatricyclo[8.3.0.0^2,^6]trideca-2(6),4,7,10,12-pentaen-9-yl]acetamido}ethoxy)ethoxy]ethoxy}ethyl)carbamoyl]-2-methoxyphenyl}-4-cyano-5-(2,2-dimethylpropyl)pyrrolidine-2-carboxamide] the “Degradation activity BRD4” value was “B (25 to 50% degradation at 1 μM)”.
In the case of COc1cc(C(=O)NCCOCCOCCOCCOCCNC(=O)C[C@@H]2N=C(c3ccc(Cl)cc3)c3c(sc(C)c3C)-n3c(C)nnc32)ccc1NC(=O)C1N[C@@H](CC(C)(C)C)[C@](C#N)(c2ccc(Cl)cc2F)[C@H]1c1cccc(Cl)c1F (stereo partly drawn) [Compound A1876, 3-(3-chloro-2-fluorophenyl)-4-(4-chloro-2-fluorophenyl)-N-{4-[(14-{2-[(9S)-7-(4-chlorophenyl)-4,5,13-trimethyl-3-thia-1,8,11,12-tetraazatricyclo[8.3.0.0^2,^6]-trideca-2(6),4,7,10,12-pentaen-9-yl]acetamido}-3,6,9,12-tetraoxatetradecan-1-yl)carbamoyl]-2-methoxyphenyl}-4-cyano-5-(2,2-dimethylpropyl)pyrrolidine-2-carboxamide], the “Degradation activity BRD4” value was “C (larger than 50% degradation at 1 μM)”.
In the case of COc1cc(C(=O)NCCOCCOCCNC(=O)C[C@@H]2N=C(c3ccc(Cl)cc3)c3c(sc(C)c3C)-n3c(C)nnc32)ccc1NC(=O)[C@H]1N[C@H](CC(C)(C)C)[C@@](C#N)(c2ccc(Cl)cc2F)[C@@H]1c1cccc(Cl)c1F [Compound A1865, (2S,3R,4S,5R)-3-(3-chloro-2-fluorophenyl)-4-(4-chloro-2-fluorophenyl)-N-[4-({2-[2-(2-{2-[(9S)-7-(4-chlorophenyl)-4,5,13-trimethyl-3-thia-1,8,11,12-tetraazatricyclo-[8.3.0.0^2,^6]trideca-2(6),4,7,10,12-pentaen-9-yl]acetamido}ethoxy)ethoxy]ethyl}-carbamoyl)-2-methoxyphenyl]-4-cyano-5-(2,2-dimethylpropyl)pyrrolidine-2-carboxamide], the “Degradation activity BRD4” value was “A (0 to 25% degradation at 1 μM)”.
In the case of Cc1sc2c(c1C)C(c1ccc(Cl)cc1)=N[C@@H](CC(=O)NCCOCCOCCOCCNC(=O)C1N[C@@H](CC(C)(C)C)[C@](C#N)(c3ccc(Cl)cc3F)[C@H]1c1cccc(Cl)c1F)c1nnc(C)n1-2 (stereo partly drawn) [Compound A1306, N-(2-{2-[2-(2-{[3-(3-chloro-2-fluorophenyl)-4-(4-chloro-2-fluorophenyl)-4-cyano-5-(2,2-dimethylpropyl)pyrrolidin-2-yl]formamido}ethoxy)ethoxy]ethoxy}ethyl)-2-[(9S)-7-(4-chlorophenyl)-4,5,13-trimethyl-3-thia-1,8,11,12-tetraazatricyclo[8.3.0.0^2,^6]trideca-2(6),4,7,10,12-pentaen-9-yl]acetamide], the “Degradation activity BRD4” value was “B (25 to 50% degradation at 1 μM)”.
With COc1cc(C(=O)NCCOCCNC(=O)C[C@@H]2N=C(c3ccc(Cl)cc3)c3c(sc(C)c3C)-n3c(C)nnc32)ccc1NC(=O)C1N[C@@H](CC(C)(C)C)[C@](C#N)(c2ccc(Cl)cc2F)[C@H]1c1cccc(Cl)c1F (stereo partly drawn) [Compound A1890, 3-(3-chloro-2-fluorophenyl)-4-(4-chloro-2-fluorophenyl)-N-(4-{[2-(2-{2-[(9S)-7-(4-chlorophenyl)-4,5,13-trimethyl-3-thia-1,8,11,12-tetraazatricyclo[8.3.0.0^2,^6]-trideca-2(6),4,7,10,12-pentaen-9-yl]acetamido}ethoxy)ethyl]carbamoyl}-2-methoxyphenyl)-4-cyano-5-(2,2-dimethylpropyl)pyrrolidine-2-carboxamide] the “Degradation activity BRD4” value was “C (larger than 50% degradation at 1 μM)”.
In the case of Cc1sc2c(c1C)C(c1ccc(Cl)cc1)=N[C@@H](CC(=O)NCCOCCOCCOCCOCCOCCNC(=O)C1NC(CC(C)(C)C)C(C#N)(c3ccc(Cl)cc3F)C1c1cccc(Cl)c1F)c1nnc(C)n1-2 (stereo partly drawn) [Compound A1283, N-(17-{[3-(3-chloro-2-fluorophenyl)-4-(4-chloro-2-fluorophenyl)-4-cyano-5-(2,2-dimethylpropyl)pyrrolidin-2-yl]formamido}-3,6,9,12,15-pentaoxaheptadecan-1-yl)-2-[(9S)-7-(4-chlorophenyl)-4,5,13-trimethyl-3-thia-1,8,11,12-tetraazatricyclo-[8.3.0.0^2,^6]trideea-2(6),4,7,10,12-pentaen-9-yl]acetamide], the “Degradation activity BRD4” value was “B (25 to 50% degradation at 1 μM)”.
For COc1cc(C(=O)NCCOCCOCCOCCNC(=O)C[C@@H]2N=C(c3ccc(Cl)cc3)c3c(sc(C)c3C)-n3c(C)nnc32)ccc1NC(=O)[C@H]1N[C@H](CC(C)(C)C)[C@@](C#N)(c2ccc(Cl)cc2F)[C@@H]1c1cccc(Cl)c1F [Compound A1875, (2S,3R,4S,5R)-3-(3-chloro-2-fluorophenyl)-4-(4-chloro-2-fluorophenyl)-N-{4-[(2-{2-[2-(2-{2-[(9S)-7-(4-chlorophenyl)-4,5,13-trimethyl-3-thia-1,8,11,12-tetraazatricyclo[8.3.0.0^2,^6]trideca-2(6),4,7,10,12-pentaen-9-yl]acetamido}ethoxy)ethoxy]ethoxy}ethyl)carbamoyl]-2-methoxyphenyl}-4-cyano-5-(2,2-dimethylpropyl)pyrrolidine-2-carboxamide], the “Degradation activity BRD4” value was “A (0 to 25% degradation at 1 μM)”.
With COc1cc(C(=O)NCCOCCOCCNC(=O)C[C@@H]2N=C(c3ccc(Cl)cc3)c3c(sc(C)c3C)-n3c(C)nnc32)ccc1NC(=O)C1N[C@@H](CC(C)(C)C)[C@](C#N)(c2ccc(Cl)cc2F)[C@H]1c1cccc(Cl)c1F (stereo partly drawn) [Compound A1863, 3-(3-chloro-2-fluorophenyl)-4-(4-chloro-2-fluorophenyl)-N-[4-({2-[2-(2-{2-[(9S)-7-(4-chlorophenyl)-4,5,13-trimethyl-3-thia-1,8,11,12-tetraazatricyclo-[8.3.0.0^2,^6]trideca-2(6),4,7,10,12-pentaen-9-yl]acetamido}ethoxy)ethoxy]-ethyl}carbamoyl)-2-methoxyphenyl]-4-cyano-5-(2,2-dimethylpropyl)pyrrolidine-2-carboxamide] the “Degradation activity BRD4” value was “B (25 to 50% degradation at 1 μM)”.
